Results published in paper PMC9643456, “Matching amino acids membrane preference profile to improve activity of antimicrobial peptides” (Communications Biology, 2022).
Converted amounts (≈) assume the structure as drawn. Square brackets hold non-standard residues; d marks the D form. Peptide text beside a SMILES is read from it.

Experiments:
E. coli ML35 = conditions: ML35, 18 h
Method: To assess antimicrobial activity, the MIC50 and MIC90 were measured using broth microdilution following CLSI guidelines. […] Each experiment was performed in triplicate. Meropenem (Sigma, Darmstadt, Germany) and colistin were used as control antibiotics. Cation-adjusted Mueller–Hinton broth (CAMHB) (Becton, Dickinson and Company, Franklin Lakes, USA) with supplied calcium (50 mg/L) and magnesium (10 mg/L) was used for the CLSI-test condition. Bacteria in midlog phase and peptides were separately diluted in CAMHB. The bacteria and peptide solutions were then mixed in 96-well polyethylene plates (SPL, Gyeonggi-do, Korea) and incubated for 18 h at 37 °C. The final concentration for bacteria was 5 × 10^5 CFU/ml. […] The MIC was defined to be the lowest concentration of peptide without visible turbidity by comparing with control antibiotics with the unaided eye. […] MICs in albumin and acetic acid solutions were measured using the same protocol but with 0.2% bovine serum albumin (Bovogen, Keilor, Australia), 0.01% acetic acid (Merck, New Jersey, USA), and CAMHB with both calcium and magnesium. In addition, MICs used in the antibiotic resistance acquisition test, the outer–inner membrane permeation test, and the transmembrane potential test and for FE-SEM were individually determined. […] Inhibitory activity unidentifiable by direct observation was determined by counting the CFUs. […]

MDR A. baumannii = assay: Killing kinetics in the SEM sample; type: cell-based, Acinetobacter baumannii; conditions: 2 × 10^8 cfu/ml, x1 MIC, PBS, after 4 hours
Method: FE-SEM was used to observe peptide-induced changes in bacterial morphology. MDR A. baumannii (ATCC BAA-1605) and MDR S. aureus (KCCM 40510) were cultured in CAMHB to log phase and washed in PBS. Bacteria and peptides were diluted in PBS, after which aliquots of bacteria (50 μl) and peptides (50 μl) were mixed to yield the following final concentrations: MDR A. baumannii or MDR S. aureus, 2 × 10^8 CFU/ml; WCopW29, 2.5 μM. Mixtures were deposited onto cover glass slips and incubated for 0 min, 15 min, 30 min, 1 h or 4 h. After incubation, the bacteria were fixed with paraformaldehyde (4%) and osmium tetroxide (1%) (Sigma, Darmstadt, Germany), washed with water, and freeze-dried overnight. Freeze-dried samples were Pt-coated and placed in an S-4700, EMAX System field emission scanning electron microscope (Hitachi, Tokyo, Japan). Bacterial morphologies were imaged and recorded on video at magnifications of 10,000× and 25,000×.
Antimicrobial kinetics for each peptide and each bacterial strain were assessed using FE-SEM. […] Each experiment was performed in triplicate.

For `CC[C@@H](C)[C@@H](NC(=O)[C@@H](Cc1c[nH]c2ccccc12)NC(=O)[C@H](NC(=O)[C@@H](CC(C)C)NC(=O)[C@H](N)Cc1c[nH]c2ccccc12)C(C)C)C(=O)N[C@H](Cc1c[nH]c2ccccc12)C(=O)N[C@H](CCCNC(=N)N)C(=O)N[C@H](CCCNC(=N)N)C(=O)N[C@H](CCCNC(=N)N)C(N)=O` [WCopW29] (H-[dW][dL][dV][dW][dI][dW][dR][dR][dR]-NH2), the “MIC at OM-IM permeation condition, E. coli ML35” value (E. coli ML35) was 5 µM (≈ 6.85 µg/mL) and the “Loss of colony forming” value (MDR A. baumannii) was 99%.
